Data from paper PMC4191898 (Bioorganic & medicinal chemistry letters, 2014).

System: DU-145 cells
Assay: antiproliferative activity against DU-145 cells
Format: cell-based, human
Details: for GI50: means of three experiments ± standard deviation, Inactive = <20% DU-145 growth inhibition at 50 μM

| Structure (SMILES) | antiproliferative activity (in words) | GI50 | GI50 values (range in words) |
| --- | --- | --- | --- |
| C#CCNC(=O)N1CCC(c2nc(-c3ccc(F)cc3)no2)CC1 [Compound 8k] | no activity was detected | Inactive | – |
| CN(Cc1ccco1)C(=O)N1CCC(c2nc(-c3ccc(F)cc3)no2)CC1 [Compound 8a] | markedly lower | – | – |
| O=C(NCc1ccccc1)N1CCC(c2nc(Cc3ccccc3)no2)CC1 [Compound 11b] | – | – | submicromolar range |
| O=C(NCc1ccsc1)N1CCC(c2nc(-c3ccc(F)cc3)no2)CC1 [Compound 8g] | – | – | submicromolar range |
| CC(C)(C)NC(=O)N1CCC(c2nc(-c3ccc(F)cc3)no2)CC1 [Compound 8q] | – | Inactive | – |
| CCCCNC(=O)N1CCC(c2nc(-c3ccc(F)cc3)no2)CC1 [Compound 8b] | no activity was detected | Inactive | – |
| O=C(NCc1ccsc1)N1CCCC1c1nc(Cc2ccccc2)no1 (centres unmarked) [Compound 16] | completely eliminated | – | – |
| O=C(N1CCCCC1)N1CCC(c2nc(-c3ccc(F)cc3)no2)CC1 [Compound 8m] | – | Inactive | – |
| O=C(N1CCOCC1)N1CCC(c2nc(-c3ccc(F)cc3)no2)CC1 [Compound 8n] | – | Inactive | – |
| O=C(NCC1CC1)N1CCC(c2nc(-c3ccc(F)cc3)no2)CC1 [Compound 8s] | – | Inactive | – |
| O=C(NCc1ccsc1)N1CCCC(c2nc(Cc3ccccc3)no2)C1 (centres unmarked) [Compound 13] | completely eliminated | – | – |
| COCCNC(=O)N1CCC(c2nc(-c3ccc(F)cc3)no2)CC1 [Compound 8r] | – | Inactive | – |
| O=C(N1CCC(c2nc(-c3ccc(F)cc3)no2)CC1)N1CCc2ccccc2C1 [Compound 8j] | markedly lower | – | – |
| O=C(N1CCC(c2nc(-c3ccc(F)cc3)no2)CC1)N1CCCc2ccccc21 [Compound 8i] | complete loss | Inactive | – |
| O=C(NCc1ccsc1)N1CCCCC1c1nc(Cc2ccccc2)no1 (centres unmarked) [Compound 14] | completely eliminated | – | – |
| Cc1noc(C2CCN(C(=O)NCc3ccccc3)CC2)n1 [Compound 11j] | – | Inactive | – |
| O=C(NCc1ccsc1)N1CCC(c2nc(Cc3ccccc3)no2)C1 (centres unmarked) [Compound 15] | drastically reduced | – | – |
| CC(C)Cc1noc(C2CCN(C(=O)NCc3ccccc3)CC2)n1 [Compound 11i] | – | Inactive | – |
| COC(=O)CNC(=O)N1CCC(c2nc(-c3ccc(F)cc3)no2)CC1 [Compound 8e] | no activity was detected | Inactive | – |
| Cc1cc(CNC(=O)N2CCC(c3nc(-c4ccc(F)cc4)no3)CC2)nn1C [Compound 8o] | – | – | submicromolar range |
| O=C(N1CCC(c2nc(-c3ccc(F)cc3)no2)CC1)N1CCc2ccccc21 [Compound 8l] | – | Inactive | – |
| O=C(NCc1ccccc1)N1CCC(c2nc(COc3ccccc3)no2)CC1 [Compound 11d] | – | – | submicromolar range |
